Source: patent US20160122320A1, “USEFUL COMBINATIONS OF MONOBACTAM ANTIBIOTICS WITH BETA-LACTAMASE INHIBITORS” (Basilea Pharmaceutica AG, priority 2005, published 2016)
Counter-ions that a name gives are not always drawn.

Assays:
Assay in all cases: MIC, NCCLS broth microdilution
Type in all cases: cell-based
Acinetobacter sp. J2 = details: Acinetobacter sp. J2; MIC of antibiotic compound 1 with the labelled bridged monobactam of formula II and clavulanate, 4 mg/L each
[1] = tested on: Pseudomonas aeruginosa MK1184; details: MIC of antibiotic compound 1 with the labelled bridged monobactam of formula II and clavulanate, 4 mg/L each
[2] = tested on: Pseudomonas aeruginosa 1973E; details: MIC of antibiotic compound 1 with the labelled bridged monobactam of formula II and clavulanate, 4 mg/L each
Procedure, shortened: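 MIC read by eye as the lowest concentration giving no visible growth after overnight incubation (30° C. or 37° C.), following NCCLS M7-A5 microdilution with ≤1% final DMSO. For combinations, partner compounds (formula II, III-XIII) were fixed at 4 μg/mL each while formula I compounds were titrated.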

Enterobacter cloacae P99 = details: MIC of antibiotic compound 1 with the labelled bridged monobactam of formula II and clavulanate, 4 mg/L each
Method: (§1) Antimicrobial activity of the compounds and of their combinations was determined against a selection of organisms according to the standard procedures described by the National Committee for Clinical Laboratory Standards (National Committee for Clinical Laboratory. Standards (2000). Methods for Dilution Antimicrobial Susceptibility Tests for Bacteria That Grow Aerobically-Fifth Edition: Approved Standard M7-A5. NCCLS, Wayne, Pa., USA).
(§2) In all cases the final concentration of DMSO incubated with the bacteria is less than or equal to 1%. […] Plates were incubated overnight at an appropriate temperature (30° C. or 37° C.) and optical densities assessed by eye. The MIC value is defined as the lowest compound concentration completely inhibiting visible growth of the test organism. When combinations between compounds of formula I with compounds of formula II and are evaluated the compounds of formula I are tested in dilution series as described above while the compounds of formula II and III-XIII were present in all wells at a constant concentration of 4 μg/mL each.

[3] = tested on: Klebsiella pneumoniae CF104; details: MIC of antibiotic compound 1 with the labelled bridged monobactam of formula II and clavulanate, 4 mg/L each
Serratia marcescens S6 = details: MIC of antibiotic compound 1 with the labelled bridged monobactam of formula II and clavulanate, 4 mg/L each
Method: as §1, §2

[4] = tested on: Stenotrophomonas malthophilia 1AC736; details: Stenotrophomonas malthophilia 1AC736; MIC of antibiotic compound 1 with the labelled bridged monobactam of formula II and clavulanate, 4 mg/L each

Compound	MIC of antibiotic at fixed inhibitor concentration (4 mg/L) (Acinetobacter sp. J2)	MIC of antibiotic at fixed inhibitor concentration (4 mg/L) [1]	MIC of antibiotic at fixed inhibitor concentration (4 mg/L) [2]	MIC of antibiotic at fixed inhibitor concentration (4 mg/L) (Enterobacter cloacae P99)	MIC of antibiotic at fixed inhibitor concentration (4 mg/L) [3]	MIC of antibiotic at fixed inhibitor concentration (4 mg/L) (Serratia marcescens S6)	MIC of antibiotic at fixed inhibitor concentration (4 mg/L) [4]
CC(C)c1cc[n+](CC(=O)N2CC[C@@H]3[C@H]2C(=O)N3S(=O)(=O)[O-])cc1 [Compound 113, (1S,5R)-2-{2-[4-(isopropyl)pyridinium]acetyl}-7-oxo-2,6-diazabicyclo[3.2.0]heptane-6-sulfonate, inner salt]	>32 µg/mL	>32 µg/mL	4 µg/mL	32 µg/mL	0.125 µg/mL	0.25 µg/mL	0.25 µg/mL
COC(=O)c1cc(C)c[n+](CC(=O)N2CC[C@@H]3[C@H]2C(=O)N3S(=O)(=O)[O-])c1 [Compound 114, (1S,5R)-2-{2-[3-(methoxycarbonyl)-5-methylpyridinium]acetyl}-7-oxo-2,6-diazabicyclo[3.2.0]heptane-6-sulfonate, inner salt]	>32 µg/mL	16 µg/mL	4 µg/mL	32 µg/mL	0.125 µg/mL	0.25 µg/mL	0.125 µg/mL
COC(=O)c1ccc[n+](CC(=O)N2CC[C@@H]3[C@H]2C(=O)N3S(=O)(=O)[O-])c1C [Compound 115, (1S,5R)-2-{2-[3-(methoxycarbonyl)-2-methylpyridinium]acetyl}-7-oxo-2,6-diazabicyclo[3.2.0]heptane-6-sulfonate, inner salt]	>32 µg/mL	16 µg/mL	4 µg/mL	32 µg/mL	0.125 µg/mL	0.25 µg/mL	0.125 µg/mL
COC(=O)c1ccc[n+](CC(=O)N2CC[C@@H]3[C@H]2C(=O)N3S(=O)(=O)[O-])c1 [Compound 116, (1S,5R)-2-{2-[3-(methoxycarbonyl)pyridinium]acetyl}-7-oxo-2,6-diazabicyclo[3.2.0]heptane-6-sulfonate, inner salt]	16 µg/mL	8 µg/mL	16 µg/mL	32 µg/mL	0.5 µg/mL	0.25 µg/mL	0.125 µg/mL
CCC(=O)c1cc[n+](CC(=O)N2CC[C@@H]3[C@H]2C(=O)N3S(=O)(=O)[O-])cc1 [Compound 117, (1S,5R)-7-oxo-2-[2-(4-propanoylpyridinium)acetyl]-2,6-diazabicyclo[3.2.0]heptane-6-sulfonate, inner salt]	>32 µg/mL	16 µg/mL	4 µg/mL	32 µg/mL	0.125 µg/mL	0.25 µg/mL	0.25 µg/mL
NC(=S)c1cc[n+](CC(=O)N2CC[C@@H]3[C@H]2C(=O)N3S(=O)(=O)[O-])cc1 [Compound 118, (1S,5R)-2-{2-[4-(aminothioxomethyl)pyridinium]acetyl}-7-oxo-2,6-diazabicyclo[3.2.0]heptane-6-sulfonate, inner salt]	>32 µg/mL	32 µg/mL	4 µg/mL	32 µg/mL	0.125 µg/mL	0.25 µg/mL	0.125 µg/mL
CCOC(=O)Cc1ccc[n+](CC(=O)N2CC[C@@H]3[C@H]2C(=O)N3S(=O)(=O)[O-])c1 [Compound 119, (1S,5R)-2-(2-{3-[(ethoxycarbonyl)methyl]pyridinium}acetyl)-7-oxo-2,6-diazabicyclo[3.2.0]heptane-6-sulfonate, inner salt]	>32 µg/mL	32 µg/mL	4 µg/mL	>32 µg/mL	0.125 µg/mL	0.25 µg/mL	0.125 µg/mL
O=C(C[n+]1cccc(C(F)(F)F)c1)N1CC[C@@H]2[C@H]1C(=O)N2S(=O)(=O)[O-] [Compound 120, (1S,5R)-7-oxo-2-{2-[3-(trifluoromethyl)pyridinium]acetyl}-2,6-diazabicyclo[3.2.0]heptane-6-sulfonate, inner salt]	32 µg/mL	16 µg/mL	8 µg/mL	32 µg/mL	0.25 µg/mL	0.25 µg/mL	0.125 µg/mL
Cc1cc[n+](CC(=O)N2CC[C@@H]3[C@H]2C(=O)N3S(=O)(=O)[O-])cc1C [Compound 121, (1S,5R)-2-[2-(3,4-dimethylpyridinium)acetyl]-7-oxo-2,6-diazabicyclo[3.2.0]heptane-6-sulfonate, inner salt]	>32 µg/mL	16 µg/mL	4 µg/mL	32 µg/mL	0.25 µg/mL	0.25 µg/mL	0.25 µg/mL
O=C(N[C@H]1CCNC1)c1ccc[n+](CC(=O)N2CC[C@@H]3[C@H]2C(=O)N3S(=O)(=O)[O-])c1 [Compound 122, 2-(2-{3-[N-((3S)pyrrolidin-3-yl)carbamoyl]pyridinium}acetyl)(1S,5R)-7-oxo-2,6-diazabicyclo[3.2.0]heptane-6-sulfonate, inner salt]	>32 µg/mL	16 µg/mL	4 µg/mL	16 µg/mL	0.125 µg/mL	0.25 µg/mL	0.125 µg/mL
O=C(C[n+]1cccc(Cc2ccccc2)c1)N1CC[C@@H]2[C@H]1C(=O)N2S(=O)(=O)[O-] [Compound 123, (1S,5R)-7-oxo-2-{2-[3-benzylpyridinium]acetyl}-2,6-diazabicyclo[3.2.0]heptane-6-sulfonate, inner salt]	>32 µg/mL	32 µg/mL	4 µg/mL	32 µg/mL	0.125 µg/mL	0.25 µg/mL	0.125 µg/mL
